Data taken from patent US9657071B2, “IgE peptide vaccine” (NIPPON ZENYAKU KOGYO CO., LTD., priority 2012, dated 2017).

What was measured:
dog IgE = assay: Subcutaneous administration test using rats: IgG antibody against dog IgE (ELISA); type: in vivo; settings: 50 μg three times, no adjuvant
Method: The dog IgE protein (Bethyl Laboratories, Inc.; P115), the mouse IgE protein (BD Biosciences, San Jose, Calif., USA), and the human IgE protein (Athens Research And Technology, Inc.; 16-16-090705-ML) were each prepared at 1 μg/mL, 500 ng/mL, 250 ng/mL, 125 ng/mL, 62.5 ng/mL, 31.2 ng/mL, 15.6 ng/mL, 7.8 ng/mL, 3.9 ng/mL, 1.95 ng/mL, and 0.97 ng/mL in an immobilization buffer (0.05 M carbonate buffer, pH 9.6), then added at a concentration of 100 μL/well to an ELISA plate, and left overnight at 4° C. The immobilization plate was washed once with PBS-T (0.05%). A blocking solution (4× Block Ace, Snow Brand Milk Products Co., Ltd.; UK-B80) was added thereto at a concentration of 200 μL/well. The plate was blocked by incubation at 37° C. for 1.5 hours. The serum was diluted 2000-fold with a diluent (PBS-T:Block Ace=9:1) and used. The serum of an unimmunized rat was similarly diluted and used as a negative control. […] Then, the measurement was performed using a plate reader (Bio-Rad Laboratories, Inc.; model 680) (dual: measurement: 450 nm, control: 570 nm).
This peptide was used in the immunization of rats without the use of an adjuvant, and antibody response to dog IgE was evaluated. […]
Blood was collected every 2 weeks from the administer start date. […] Serum was collected, and an IgG antibody against dog IgE was evaluated by ELISA (FIG. 16). […]

[1] = tested on: Dog subjected to P-K test; assay: Prausnitz-Kustner (P-K) test; type: in vivo; settings: conclusion of P-K test
Method: The P-K test refers to a method for qualitatively evaluating antigen-specific IgE in test serum and employs additional antigen-unsensitized individuals. The test is summarized as follows:
1) Antigen-unsensitized animals are prepared as animals subjected to the P-K test.
2) Test serum or serum of a healthy animal (control) is intracutaneously administered to the animals subjected to the P-K test. When antigen-specific IgE is present in the test serum, the IgE binds to the surface of mast cells in the skins of the animals subjected to the P-K test within 48 hours after the administration.
3) 48 hours after the serum administration, an antigen solution is intracutaneously administered to the same sites as above. When antigen-specific IgE is present in the test serum, the antigen binds to the antigen-specific IgE bound with the surface of mast cells to form IgE cross-linking. This triggers the degranulation of the mast cells, resulting in flare confirmed in the skins.
The administration group and the non-administration group differed most largely in their serum Der f 2-specific IgE concentrations at day 77 (7 days after the second sensitization) when the effects of the test substance were thus confirmed to be maximized. […]

With “KKTSVSASQWYTKHHNNATT (listed as Mus musculus) [M4-7-11]” the “level of the rat IgG antibody against dog IgE” value (dog IgE; intravenous) was “confirmed to elevate” and the “level of the rat IgG antibody against dog IgE” value (dog IgE; subcutaneous) was “confirmed to elevate”.
For “QEKKTSVSASQWYTKHHNNATTSIT (listed as Mus musculus) [MOUSE CH3-4-17-11]”, the “effect of vaccine-induced IgG on binding of IgE to mast cells” value [1] was “blocks the binding of the IgE to mast cells”.
